The values below are quoted from earlier work in patent publication US12279614B2, “Photo-polymerizable, universal antimicrobial coating to produce high-performing, multi-functional face masks” (The Governors of the University of Alberta, priority 2022, dated 2025).

In the data set the test system is Human Adenovirus Type 8. The following applies: incubation time 1 hr.

Consider Benzalkonium chloride, for which the Inactivation efficiency is reported as 1.01 log reduction.
